# Test results as given in paper PMC4314249, “Characterizing the Peroxisome Proliferator-Activated Receptor (PPARγ) Ligand Binding Potential of Several Major Flame Retardants, Their Metabolites, and Chemical Mixtures in House Dust” (Environmental Health Perspectives, 2014).
# Like-named read-outs stand apart in the source and are kept apart here.
# How the values were obtained:
# [1] = target: T1, human PPARγ ligand-binding domain (Homo sapiens, UniProt P37231); experiment: PolarScreen PPARγ-Competitor fluorescence polarization ligand binding assay
# T1 construct: The kit uses the human-derived recombinant PPARγ LBD tagged with an N-terminal GST-tag; purchased Invitrogen
# T1 sequence (P37231 238-503 limits assumed): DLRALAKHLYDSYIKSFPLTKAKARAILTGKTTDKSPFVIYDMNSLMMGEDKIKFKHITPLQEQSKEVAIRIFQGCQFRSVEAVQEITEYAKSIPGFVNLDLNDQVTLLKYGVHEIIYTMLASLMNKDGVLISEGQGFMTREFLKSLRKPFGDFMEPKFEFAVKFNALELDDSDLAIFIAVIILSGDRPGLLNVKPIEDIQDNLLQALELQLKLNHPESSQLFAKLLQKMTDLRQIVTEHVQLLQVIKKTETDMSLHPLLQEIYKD
# PPARγ2 = system: PPARγ2; parameters: method as in Suzuki et al. (2013); details: U2OS reporter assay; ref Suzuki et al. (2013); cited from earlier work
# PPARγ LBD = target: T2, PPARγ LBD (Homo sapiens, UniProt P37231); experiment: PPARγ competitive binding after bioactivation with rat liver S9 fraction (active vs inactive S9); details: 100 μM, n = 3, rat liver S9
# T2 construct: The kit uses the human-derived recombinant PPARγ LBD tagged with an N-terminal GST-tag; purchased Invitrogen
# T2 sequence (P37231 238-503 limits assumed): T1 sequence (P37231 238-503 limits assumed)
# [2] = MEHP formation on incubation of dust with S9 fraction; assay type: in vitro ADME, Sprague-Dawley rats
# Experimental: Bioactivation of dust samples. We assessed the influence of biotransformation on ligand binding activity by incubating dust extracts in pooled liver S9 fractions prepared from Sprague-Dawley rats [Rat (Sprague-Dawley) S9 Fractions; Gibco, Grand Island, NY). Bioactivation was assessed in 7 of the 23 dust samples (1 dust sample was tested in triplicate, while the others were tested once because of dust mass limitations) and in SRM 2585 (n = 3). The 7 dust samples were from groups A (samples 5, 7, and 8), B (samples 9 and 10), and C (samples 11 and 12). The influence of biotransformation was also investigated using pure chemical standards. DEHP (100 μM) and a mixture (MIX) containing 1 μM each of FM550, isopropylated triaryl phosphate (ITP), BDE-47, BDE-99, and DEHP were evaluated for binding activity before and after bioactivation. For a detailed description of the method, see Supplemental Material, “Bioactivation of Dust Samples” and Figure S3. Briefly, dust samples were bioactivated by incubation with an S9 fraction (1 mg protein/mL), extracted, and cleaned by dextran-assisted liquid–liquid extraction and phenolic extraction. […]
# For each dose level of tested compounds, triplicate samples were prepared and each well was read five times in the plate reader. […]
# [3] = read-out: Kd (dissociation constant)
# [4] = calculated from IC50 by equation 3, read-out: Kd (dissociation constant)
SMILES,IC50 [1] [µM],Kd [1] [µM],Relative potency [1],IC50 ([1]; read-out: IC50) [µM],"Kd [1, 3] [µM]",other results
"Oc1c(Br)cc(Br)cc1Br [2,4,6-TBP, 2,4,6-Tribromophenol]",36.3,18.9,0.0063,,,
"Oc1c(Cl)cc(Cl)cc1Cl [2,4,6-TCP, 2,4,6,-trichlorophenol]",,,0.0023,100,52.2,
"Oc1c(F)cc(F)cc1F [2,4,6-TFP, 2,4,6-trifluorophenol]",,,,> 250,,"Kd [1, 4]: > 130 µM"
"Oc1c(I)cc(I)cc1I [2,4,6-TIP, 2,4,6-triiodophenol]",1.84,0.96,0.1250,,,
Oc1c(Br)ccc(Oc2ccc(Br)cc2Br)c1Br [3-OH-BDE-47],,,0.9583,0.24,0.13,
Oc1cc(Oc2ccc(Br)cc2Br)c(Br)cc1Br [5-OH-BDE-47],,,0.0744,3.09,1.61,
Oc1cc(Oc2cc(Br)c(Br)cc2Br)c(Br)cc1Br [5´-OH-BDE-99],,,0.0077,30,15.7,
Oc1cc(Br)cc(Br)c1Oc1ccc(Br)cc1Br [6-OH-BDE-47],,,< 0.023,> 10,> 5.22,PPARγ binding (in words) [1]: not active ligands
Oc1cc(Br)cc(Br)c1Oc1cc(Br)c(Br)cc1Br [6´-OH-BDE-99],,,< 0.0046,> 50,> 26.1,PPARγ binding (in words) [1]: not active ligands
"Brc1ccc(Oc2ccc(Br)cc2Br)c(Br)c1 [BDE-47, 2,2´,4,4´-tetrabromodiphenyl ether]",,,,> 12,> 6.25,5% induction concentration (PPARγ2): 10 µM
"Brc1ccc(Oc2cc(Br)c(Br)cc2Br)c(Br)c1 [BDE–99, 2,2´,4,4´,5-pentabromodiphenyl ether]",,,,> 250,> 130,PPARγ binding (in words) [1]: no binding was observed
"CC(C)(c1ccc(O)cc1)c1ccc(O)cc1 [BPA, bisphenol A]",,,,> 250,> 130,PPARγ binding (in words) [1]: did not exhibit any binding
"CCCCC(CC)COC(=O)c1ccccc1C(=O)OCC(CC)CCCC (centres unmarked) [DEHP, di-(2-ethylhexyl) phthalate]",,,,> 250,,"change of PPARγ binding potency after bioactivation (in words) (PPARγ LBD): slightly increased; Kd [1, 4]: > 130 µM"
"O=P(O)(Oc1ccccc1)Oc1ccccc1 [DPP, diphenyl phosphate]",627,327,0.0004,,,
"CCCCC(CC)COC(=O)c1ccccc1C(=O)O (centres unmarked) [MEHP, mono(2-ethylhexyl) phthalate]",,,,,,MEHP formation rate [2]: approximately 70 pmol/mg protein/min
"CCCCC(CC)COC(=O)c1cc(Br)c(Br)c(Br)c1Br (centres unmarked) [TBB, 2-ethylhexyl-2,3,4,5-tetrabromobenzoate]",> 250,> 130,,,,PPARγ binding (in words) [1]: did not show any binding activity
"O=C(O)c1cc(Br)c(Br)c(Br)c1Br [TBBA, 2,3,4,5-tetrabromo benzoic acid]",42,22.1,0.0055,,,
"CCCCOCCOP(=O)(OCCOCCCC)OCCOCCCC [TBEP, tris(2-butoxyethyl) phosphate]",103,53.7,0.0022,,,
"CCCCC(CC)COC(=O)c1c(Br)c(Br)c(Br)c(Br)c1C(=O)OCC(CC)CCCC (centres unmarked) [TBPH, bis(2-ethylhexyl) tetrabromophthalate]",> 250,> 130,,,,PPARγ binding (in words) [1]: did not show any binding activity
"CC(C)(c1cc(Cl)c(O)c(Cl)c1)c1cc(Cl)c(O)c(Cl)c1 [TCBPA, 3,3´,5,5´-tetrachlorobisphenol A]",,,0.0444,5.18,2.7,
"O=P(Oc1ccccc1)(Oc1ccccc1)Oc1ccccc1 [TPP, triphenyl phosphate]",40,20.9,0.0058,,,
"[Cl][Sn]([c]1ccccc1)([c]1ccccc1)[c]1ccccc1 [TPT, triphenyltin chloride]",,,0.1337,1.72,0.9,
"Oc1cc(Cl)ccc1Oc1ccc(Cl)cc1Cl [Triclosan, triclosan]",12.5,6.52,0.0184,,,
